Experimental data reported in US7291353B2, “Anti-peptic ulcer activity of an extract of a flower of Woodfordia fruticosa” (Council of Scientific and Industrial Research, priority 2002, dated 2007).

Columns and labels:
[1] = test system: frog gastric mucosa (histamine stimulated acid secretion); test: Frog Chamber Study: histamine-stimulated acid secretion of chambered frog gastric mucosa; set-up: species or system Rana hexadactyla; key to Comment (qualitative rank score): the rank score for both cimetidine and omeprazole (considered as 100%) were given as +8; conditions: for concentration enough to block almost complete acid secretion: 0.1-0.2 mM histamine; for Comment (qualitative rank score): cimetidine and omeprazole (100%) = +8
Protocol: Frog Chamber Study: The in organ experiments using the whole frog stomach to assess the anti-HCl secreting potential of extracts and their fractions were carried out employing Frog Chamber Model (for detail about the logic of the experiment and the information to be generated.
Frog Chamber Study: The study is based on the principle of ‘No Acid No Ulcer’. […] In this in vitro study, frog stomach is mounted in a plastic tube (Using Chamber Study). Employing histamine as the ulcerogen (final common mediator of all the physiological secretagogues), the rate and extent of proton secretion are quantitatively assessed as a function of the amount of herbal preparation and duration of treatment.
The experimental approach, as standardized through a series of experiments with more than 200 plant extracts, has been to measure, over time, (i) basal acid secretion, (ii) histamine-stimulated acid secretion, (iii) extract-induced (two doses) acid secretion, followed by (iv) extract-withdrawn acid secretion. For a particular stomach, after the basal secretion level is known, histamine is inserted from the nutrient side to see maximum acid secreting potential. Thereafter, an extract is inserted (first lower dose and then higher dose) from the nutrient side in presence of continuous supply of histamine to mimic ulcerative situation, followed by withdrawal of the extract by washing the nutrient side with histamine-containing nutrient medium. This latter phase is expected to generate information regarding the efficacy of the extract, upon its withdrawal, towards inhibiting the continuously existing acid secreting phase.
Experiments are carried out with in vitro preparations of gastric mucosa mounted over one end of a plastic tube (mounted area is 1.76 cm^2) with the mucosal surface facing out. The mounted tissue is placed vertically inside a 25-ml container. The nutrient solution is regular Frog Ringer solution and the luminal side (secretory side) is bathed in an unbuffered NaCl solution. The volumes of nutrient and mucosal solutions are adjusted in a way so as to be able to maintain constant hydrostatic pressure in the chamber throughout the duration of the experiment. Both solutions are slowly and continuously bubbled with O2 during the entire duration of the experiment. The mucosal solution is slowly and continuously stirred with a magnetic stirrer and collected at 15-min intervals in thoroughly washed clean vials.

Gastric H^+, K^+-ATPase = biological target: T1, Gastric H^+, K^+-ATPase (Sus scrofa, UniProt P19156); test: Anti Gastric Proton Pump Activity Study; format: biochemical, pig; conditions: dose range of 0.3-3.0 mg/assay
T1 construct: These membranes are primarily enriched in tubulovescicular and apical membranes; from tissue; host or cells: pig stomach (gastric mucosa), tubulovesicular and apical membranes
Excerpt: The applicant have selected one whole animal model—Cold Restraint Stress Ulcer in Rat (in vivo) to assess ulcer protection capacity of the extracts [Senay E. C. and Levine R. J., Proc Soc. Exp. Biol. Med. 124, 1221 (1967)], one isolated stomach model—Chambered Frog Gastric Mucosa (in organ) to assess anti HCl secretion potential [Durbin R. P. and Kircher A. B., Biochem. Biophys. Acta, 321, 553 (1973); Ray, T. K. and Tague L. R., Biochem. Pharmacol. 29, 2755 (1980); Ray et al., Proc. Natl. Acad. Sci. (USA) 79, 1448 (1982)], gastric proton pump inhibition model using pig gastric H^+, K^+-ATPase-rich apical and tubulovesicular membranes (in vitro) to examine enzyme inhibition [Bandopadhyay, S. Das, P. K., Wright, M. V., Nandi, J., Bhattacharyya, D. and Ray, T. K., J. Biol. Chem. 262, 5664 (1987)], and anti Helicobacter pylori activity assessment by Disc Diffusion Sensitivity Assay [Glupczynski, Y. In: Helicobacter pylori: techniques for clinical diagnosis & basic research, (Eds. Adrian Lee & Francis Megraud), W. B. Saunders Company Ltd., 1996, pp. 17-32].
3. […] K^+-stimulated activity, referred to as H^+, K^+-ATPase, was calculated as the difference between the activities obtained in presence of Mg^2+ plus K^+ and the basal activity (Mg^2+-ATPase) in presence of MG^2+ alone.

[2] = test system: Helicobacter pylori avirulent strain 80A; test: Anti H. pylori Activity, Disc Diffusion Sensitivity Test, strain 80A; format: cell-based; conditions: 0.5 mg/disc; one range stated for both the strains (80A)
[3] = test system: Helicobacter pylori virulent strain 121 A; test: Anti H. pylori Activity, Disc Diffusion Sensitivity Test, strain 121A; format: cell-based; conditions: 0.5 mg/disc; one range stated for both the strains (121A)

T1 sequence (P19156 2-1034 limits assumed): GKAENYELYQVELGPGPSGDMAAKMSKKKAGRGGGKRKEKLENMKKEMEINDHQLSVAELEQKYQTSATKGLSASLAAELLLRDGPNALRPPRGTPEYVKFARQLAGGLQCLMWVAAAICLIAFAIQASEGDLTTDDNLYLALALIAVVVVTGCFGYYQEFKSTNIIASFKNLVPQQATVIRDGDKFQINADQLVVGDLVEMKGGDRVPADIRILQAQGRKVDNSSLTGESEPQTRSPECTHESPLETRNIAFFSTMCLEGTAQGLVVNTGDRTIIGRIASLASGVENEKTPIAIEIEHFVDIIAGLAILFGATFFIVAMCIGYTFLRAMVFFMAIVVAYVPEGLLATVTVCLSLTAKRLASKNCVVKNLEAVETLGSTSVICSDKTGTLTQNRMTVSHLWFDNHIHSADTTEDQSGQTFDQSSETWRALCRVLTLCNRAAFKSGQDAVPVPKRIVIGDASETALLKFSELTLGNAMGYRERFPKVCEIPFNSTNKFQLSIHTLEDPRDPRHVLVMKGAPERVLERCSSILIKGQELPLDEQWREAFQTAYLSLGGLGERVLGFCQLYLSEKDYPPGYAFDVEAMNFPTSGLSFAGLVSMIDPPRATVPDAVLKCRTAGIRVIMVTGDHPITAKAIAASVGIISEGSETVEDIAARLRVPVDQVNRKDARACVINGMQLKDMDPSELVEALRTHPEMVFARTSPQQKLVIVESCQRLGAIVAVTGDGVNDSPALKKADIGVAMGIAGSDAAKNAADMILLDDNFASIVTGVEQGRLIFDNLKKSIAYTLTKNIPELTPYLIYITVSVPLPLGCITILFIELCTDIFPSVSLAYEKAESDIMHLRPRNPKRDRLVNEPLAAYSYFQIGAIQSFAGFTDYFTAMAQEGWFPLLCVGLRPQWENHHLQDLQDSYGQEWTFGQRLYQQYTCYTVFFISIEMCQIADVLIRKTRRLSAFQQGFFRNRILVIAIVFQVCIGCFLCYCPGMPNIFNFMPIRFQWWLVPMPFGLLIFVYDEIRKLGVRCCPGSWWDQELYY
T1 sequence (P18434 whole entry partner): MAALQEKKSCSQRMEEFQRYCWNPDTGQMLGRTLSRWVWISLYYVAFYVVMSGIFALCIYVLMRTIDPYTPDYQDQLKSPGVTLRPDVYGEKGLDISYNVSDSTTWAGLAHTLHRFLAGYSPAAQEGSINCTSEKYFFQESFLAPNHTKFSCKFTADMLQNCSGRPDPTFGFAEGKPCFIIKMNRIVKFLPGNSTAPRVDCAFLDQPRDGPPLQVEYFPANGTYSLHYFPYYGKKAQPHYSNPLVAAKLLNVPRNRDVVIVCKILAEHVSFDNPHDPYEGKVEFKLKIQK

Row | Structure (SMILES) | concentration enough to block almost complete acid secretion ([1]; added from nutrient side) | Comment (qualitative rank score) [1] | concentration enough to block almost complete acid secretion ([1]; added from secretory side) | % inhibition of H^+, K^+-ATPase (Gastric H^+, K^+-ATPase) | inhibition zone diameter [2] | inhibition zone diameter [3]
1 | CN/C(=N/CCSCc1nc[nH]c1C)NC#N [cimetidine] | 0.1 to 0.2 mM | +8 |  |  |  | 
2 | COc1ccc2[nH]c([S+]([O-])Cc3ncc(C)c(OC)c3C)nc2c1 (stereo not shown) [omeprazole] |  | +8 | 1 to 10 mM | 50-100% |  | 
3 | CC[C@H]1OC(=O)[C@H](C)[C@@H](O[C@H]2C[C@@](C)(OC)[C@@H](O)[C@H](C)O2)[C@H](C)[C@@H](O[C@@H]2O[C@H](C)C[C@H](N(C)C)[C@H]2O)[C@](C)(OC)C[C@@H](C)C(=O)[C@H](C)[C@@H](O)[C@]1(C)O [clarithromycin] |  |  |  |  | 2.3-2.7 cm | 2.3-2.7 cm
